Data: ChEMBL document CHEMBL6177997, “Design, Synthesis, and Evaluation of Novel ROCK Inhibitors for Glaucoma Treatment: Insights into In Vitro and In Vivo Efficacy and Safety” (J Med Chem, 2025)
Calls of active or inactive are those of the source. The calls are words filed in the database; no cut-off is given here.

Key:
HTM [1] = assay: Induction of morphological changes in human HTM cells assessed as appearance of rounded cells at 15 uM incubated for 10 hrs by light microscopic analysis; format: functional, cell-based
HTM [2] = assay: Induction of morphological changes in human HTM cells assessed as appearance of rounded cells at 45 uM incubated for 10 hrs by light microscopic analysis; format: functional, cell-based
[3] = Cytotoxicity against human HTM cells assessed as reduction in cell viability at 15 uM incubated for 24 hrs by MTT assay relative to control; format: toxicity, cell-based
[4] = Cytotoxicity against human HTM cells assessed as reduction in cell viability at 45 uM incubated for 24 hrs by MTT assay relative to control; format: toxicity, cell-based
HTM [5] = assay: Induction of F-actin depolymerization in human HTM cells at 5 uM incubated for 4 hrs by rhodamine-phalloidin staining based analysis; format: cell-based
HTM [6] = assay: Inhibition of paxillin expression in human HTM cells at 5 uM; format: functional, cell-based
HTM [7] = assay: Inhibition of TGF-beta2 induced alpha-SMA expression in human HTM cells at 1 uM pretreated with compound for 2 hrs followed by TGF-beta2 induction and measured after 24 hrs; format: functional, cell-based; details: time 26.0 hrs
HTM [8] = assay: Inhibition of TGF-beta2 induced collagen 1A expression in human HTM cells at 1 uM pretreated with compound for 2 hrs followed by TGF-beta2 induction and measured after 24 hrs; format: functional, cell-based; details: time 26.0 hrs
HTM [9] = assay: Inhibition of H2O2-induced ROS production in human HTM cells assessed as decrease in green fluorescence at 1 uM preincubated for 1 hrs followed by H2O2 induction for 2 hrs and measured after 30 mins by DCFH-DA based fluorescence microscopic analysis; format: functional, cell-based; details: time 3.5 hrs
Mitochondrial membrane = assay: Induction of mitochondrial membrane potential in human HTM cells at 1 uM incubated for 24 hrs by JC-1 staining based flow cytometry analysis
[10] = Induction of apoptosis in H2O2-induced human HTM cells at 1 uM pretreated with compound for 1 hr followed by H2O2 induction and measured after 2 hrs by Annexin V AF647/PI staining based flow cytometry analysis (reference value: 13.47%); format: functional; details: time 3 hrs
Oryctolagus cuniculus [11] = organism: Oryctolagus cuniculus; assay: Anti-glaucoma activity in methylcellulose-induced acute intraocular hypertensive rabbit model assessed as reduction in intraocular pressure at 0.1 %, TOP measured at 4 hrs; format: functional
Oryctolagus cuniculus [12] = organism: Oryctolagus cuniculus; assay: Anti-glaucoma activity in methylcellulose-induced acute intraocular hypertensive rabbit model assessed as reduction in intraocular pressure at 0.1 %, TOP measured at 8 hrs; format: functional
Oryctolagus cuniculus [13] = organism: Oryctolagus cuniculus; assay: Anti-glaucoma activity in methylcellulose-induced high acute intraocular hypertensive rabbit model assessed as reduction in intraocular pressure at 0.1 %, TOP measured at 4 hrs; format: functional
Oryctolagus cuniculus [14] = organism: Oryctolagus cuniculus; assay: Anti-glaucoma activity in methylcellulose-induced acute intraocular hypertensive rabbit model assessed as reduction in intraocular pressure at 0.1 %, TOP measured at 2 hrs; format: functional
[15] = Toxicity in rabbit assessed as appearance of conjunctival congestion by measuring ocular irritation score at 0.1 % TOP administration on left eye measured after 7 days by draize eye irritation test; format: tissue-based, Oryctolagus cuniculus; details: in vivo, topical_or_ocular, 168 h, time 7 day
[16] = Toxicity in rabbit assessed as appearance of conjunctival congestion by measuring ocular irritation score at 0.1 % TOP administration on left eye measured on day 4 by draize eye irritation test; format: tissue-based, Oryctolagus cuniculus; details: in vivo, topical_or_ocular, 96 h, time 4 day
[17] = molecular target: T1, Rho-associated protein kinase 2 (Homo sapiens, UniProt O75116); assay: Inhibition of ROCK2 (unknown origin) relative to control; details: concentration not given here
Target sequence in this assay (O75116 whole entry, looked up): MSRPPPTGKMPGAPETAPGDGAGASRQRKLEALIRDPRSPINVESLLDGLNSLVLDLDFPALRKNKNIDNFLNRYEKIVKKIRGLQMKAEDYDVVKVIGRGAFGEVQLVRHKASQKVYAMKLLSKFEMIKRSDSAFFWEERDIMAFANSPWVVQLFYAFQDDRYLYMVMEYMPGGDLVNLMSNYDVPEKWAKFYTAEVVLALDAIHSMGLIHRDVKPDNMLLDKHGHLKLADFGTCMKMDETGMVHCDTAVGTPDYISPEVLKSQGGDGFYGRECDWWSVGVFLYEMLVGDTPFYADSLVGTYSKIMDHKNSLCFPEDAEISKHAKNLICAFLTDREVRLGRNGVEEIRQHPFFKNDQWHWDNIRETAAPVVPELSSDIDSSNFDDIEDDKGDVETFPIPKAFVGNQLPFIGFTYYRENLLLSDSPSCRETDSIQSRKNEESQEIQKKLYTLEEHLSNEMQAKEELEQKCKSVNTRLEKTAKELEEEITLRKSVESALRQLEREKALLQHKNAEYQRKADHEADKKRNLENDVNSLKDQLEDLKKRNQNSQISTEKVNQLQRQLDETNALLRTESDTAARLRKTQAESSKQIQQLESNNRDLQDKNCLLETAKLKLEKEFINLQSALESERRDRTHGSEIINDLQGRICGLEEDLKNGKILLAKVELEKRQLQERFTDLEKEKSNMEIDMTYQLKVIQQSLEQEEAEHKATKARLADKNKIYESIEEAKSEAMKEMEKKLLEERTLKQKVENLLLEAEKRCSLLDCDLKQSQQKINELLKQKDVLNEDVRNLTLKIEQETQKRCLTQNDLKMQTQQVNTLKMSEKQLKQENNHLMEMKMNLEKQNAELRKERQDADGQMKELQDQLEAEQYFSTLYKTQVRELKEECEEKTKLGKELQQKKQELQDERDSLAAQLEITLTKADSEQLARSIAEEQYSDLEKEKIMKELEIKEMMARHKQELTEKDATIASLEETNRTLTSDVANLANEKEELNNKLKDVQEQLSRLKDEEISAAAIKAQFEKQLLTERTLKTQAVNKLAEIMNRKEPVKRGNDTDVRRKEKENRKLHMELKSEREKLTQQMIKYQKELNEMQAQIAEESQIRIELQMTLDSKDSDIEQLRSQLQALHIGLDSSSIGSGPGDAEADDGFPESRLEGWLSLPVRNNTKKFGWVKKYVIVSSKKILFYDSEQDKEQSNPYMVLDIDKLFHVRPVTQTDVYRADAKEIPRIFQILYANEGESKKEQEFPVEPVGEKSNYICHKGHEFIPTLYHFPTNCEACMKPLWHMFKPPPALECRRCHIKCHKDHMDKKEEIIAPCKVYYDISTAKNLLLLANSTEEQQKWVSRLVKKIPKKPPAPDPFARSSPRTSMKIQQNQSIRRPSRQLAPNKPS

[18] = molecular target: T2, Rho-associated protein kinase 1 (Homo sapiens, UniProt Q13464); assay: Inhibition of ROCK1 (unknown origin) incubated for 40 mins in presence of ATP by ADP-glo assay
Target sequence in this assay (Q13464 whole entry): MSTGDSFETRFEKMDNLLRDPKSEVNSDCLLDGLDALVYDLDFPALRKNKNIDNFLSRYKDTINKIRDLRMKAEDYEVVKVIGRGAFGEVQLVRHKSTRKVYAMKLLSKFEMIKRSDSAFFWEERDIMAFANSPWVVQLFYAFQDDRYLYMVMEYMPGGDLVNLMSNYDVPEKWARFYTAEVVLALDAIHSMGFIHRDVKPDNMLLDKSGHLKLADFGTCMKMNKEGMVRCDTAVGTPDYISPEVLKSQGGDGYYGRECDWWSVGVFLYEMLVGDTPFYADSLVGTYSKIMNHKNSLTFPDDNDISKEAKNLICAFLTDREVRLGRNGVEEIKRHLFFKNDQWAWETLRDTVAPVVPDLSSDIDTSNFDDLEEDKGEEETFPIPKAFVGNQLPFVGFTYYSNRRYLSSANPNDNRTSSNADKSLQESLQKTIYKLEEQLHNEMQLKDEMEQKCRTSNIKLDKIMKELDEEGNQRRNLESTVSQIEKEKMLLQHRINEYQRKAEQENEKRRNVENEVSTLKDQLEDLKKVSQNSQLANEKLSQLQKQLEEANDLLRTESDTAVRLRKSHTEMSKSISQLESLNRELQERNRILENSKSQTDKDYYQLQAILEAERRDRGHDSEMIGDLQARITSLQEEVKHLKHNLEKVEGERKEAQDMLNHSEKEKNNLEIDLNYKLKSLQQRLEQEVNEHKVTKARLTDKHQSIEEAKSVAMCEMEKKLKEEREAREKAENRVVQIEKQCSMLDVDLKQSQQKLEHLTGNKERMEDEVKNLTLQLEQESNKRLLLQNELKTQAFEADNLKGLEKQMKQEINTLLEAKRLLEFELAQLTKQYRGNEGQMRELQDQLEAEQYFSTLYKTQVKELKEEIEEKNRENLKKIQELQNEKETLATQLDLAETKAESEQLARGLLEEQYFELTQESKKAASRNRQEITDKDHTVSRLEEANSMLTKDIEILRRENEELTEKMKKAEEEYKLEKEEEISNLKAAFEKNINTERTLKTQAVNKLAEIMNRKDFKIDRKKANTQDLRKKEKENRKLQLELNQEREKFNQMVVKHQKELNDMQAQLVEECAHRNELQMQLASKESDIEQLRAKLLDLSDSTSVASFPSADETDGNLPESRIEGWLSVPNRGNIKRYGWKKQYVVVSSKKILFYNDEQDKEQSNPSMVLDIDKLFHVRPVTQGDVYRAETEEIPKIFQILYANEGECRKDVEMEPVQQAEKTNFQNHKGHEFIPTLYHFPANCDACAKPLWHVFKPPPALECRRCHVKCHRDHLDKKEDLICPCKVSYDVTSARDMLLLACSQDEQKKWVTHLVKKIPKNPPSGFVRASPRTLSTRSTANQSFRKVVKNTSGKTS

[19] = molecular target: T1, Rho-associated protein kinase 2; assay: Inhibition of ROCK2 (unknown origin) incubated for 40 mins in presence of ATP by ADP-glo assay
Target sequence in this assay (O75116 whole entry): as the sequence (O75116 whole entry, looked up) above

[20] = molecular target: T3, MAP kinase-interacting serine/threonine-protein kinase 1 (Homo sapiens, UniProt Q9BUB5); assay: Inhibition of MNK1 (unknown origin) preincubated for 10 mins followed by substrate addition and measured after 60 mins by ADP-glo kinase assay
Target sequence in this assay (Q9BUB5 whole entry): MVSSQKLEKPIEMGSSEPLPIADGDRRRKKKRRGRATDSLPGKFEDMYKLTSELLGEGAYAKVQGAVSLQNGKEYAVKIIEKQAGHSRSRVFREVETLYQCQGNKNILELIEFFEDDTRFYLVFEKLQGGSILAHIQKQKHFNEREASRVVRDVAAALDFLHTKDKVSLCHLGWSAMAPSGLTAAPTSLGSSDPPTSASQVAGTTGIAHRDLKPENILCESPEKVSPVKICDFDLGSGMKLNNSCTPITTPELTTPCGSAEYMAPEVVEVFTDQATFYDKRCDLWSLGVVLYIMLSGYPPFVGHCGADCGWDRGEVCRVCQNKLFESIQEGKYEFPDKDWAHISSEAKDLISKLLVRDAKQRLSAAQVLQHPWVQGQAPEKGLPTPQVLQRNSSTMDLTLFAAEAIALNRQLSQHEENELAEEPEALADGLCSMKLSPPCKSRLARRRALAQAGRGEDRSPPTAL

HTM [21] = assay: Induction of morphological changes in human HTM cells at 3 uM incubated for 10 hrs by light microscopic analysis; format: functional, cell-based
HTM [22] = assay: Induction of morphological changes in human HTM cells assessed as appearance of cell contraction at 45 uM incubated for 10 hrs by light microscopic analysis; format: functional, cell-based
HTM [23] = assay: Induction of morphological changes in human HTM cells assessed as appearance of cell contraction at 15 uM incubated for 10 hrs by light microscopic analysis; format: functional, cell-based
[24] = Cytotoxicity against human HTM cells assessed as inhibition of cell proliferation at 45 uM incubated for 24 hrs by MTT assay; format: toxicity, cell-based
HTM [25] = assay: Inhibition of paxillin expression in human HTM cells at 0.02 to 5 uM; format: functional, cell-based; details: dose 0.02-5 µM
HTM [26] = assay: Inhibition of cell migration in human HTM cells at 1 uM incubated for 24 to 48 hrs by wound healing assay; format: functional, cell-based; details: time 24-48 hrs
HTM [27] = assay: Anti-inflammatory activity against human HTM cells assessed as inhibition of H2O2-induced IL-6 secretion; format: functional, cell-based
HTM [28] = assay: Anti-inflammatory activity against human HTM cells assessed as inhibition of H2O2-induced NF-kappaB secretion; format: functional, cell-based
HTM [29] = assay: Anti-inflammatory activity against human HTM cells assessed as inhibition of H2O2-induced i-NOS secretion; format: functional, cell-based
[30] = Toxicity in rabbit assessed as appearance of conjunctival congestion by measuring ocular irritation score at 0.1 % TOP administration on left eye measured at 7 days by draize eye irritation test; format: tissue-based, Oryctolagus cuniculus; details: in vivo, topical_or_ocular, 168 h, time 7 day
[31] = molecular target: T3, MAP kinase-interacting serine/threonine-protein kinase 1; assay: Inhibition of MNK1 (unknown origin) at 5 uM preincubated for 10 mins followed by substrate addition and measured after 60 mins by ADP-glo kinase assay relative to control; details: time 70.0 min
Target sequence in this assay (Q9BUB5 whole entry, looked up): as the sequence (Q9BUB5 whole entry) above

[32] = molecular target: MAP kinase-interacting serine/threonine-protein kinase 2 (Homo sapiens) (UniProt Q9HBH9); assay: Inhibition of MNK2 (unknown origin) at 5 uM preincubated for 10 mins followed by substrate addition and measured after 60 mins by ADP-glo kinase assay relative to control; details: time 70.0 min
Sequence of MAP kinase-interacting serine/threonine-protein kinase 2 (Homo sapiens) (Q9HBH9 whole entry, looked up): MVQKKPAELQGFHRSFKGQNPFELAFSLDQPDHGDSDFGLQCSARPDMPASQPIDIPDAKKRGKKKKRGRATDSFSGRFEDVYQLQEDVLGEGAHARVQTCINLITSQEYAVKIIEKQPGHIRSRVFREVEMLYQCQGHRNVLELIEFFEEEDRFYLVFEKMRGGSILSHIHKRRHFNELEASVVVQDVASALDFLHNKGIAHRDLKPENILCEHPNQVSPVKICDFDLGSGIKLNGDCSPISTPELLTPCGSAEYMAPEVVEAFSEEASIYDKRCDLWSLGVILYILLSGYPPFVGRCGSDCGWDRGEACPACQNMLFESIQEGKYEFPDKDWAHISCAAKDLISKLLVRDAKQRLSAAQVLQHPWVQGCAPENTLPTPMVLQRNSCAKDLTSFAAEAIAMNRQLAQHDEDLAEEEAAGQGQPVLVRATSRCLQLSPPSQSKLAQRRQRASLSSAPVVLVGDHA

[33] = molecular target: T2, Rho-associated protein kinase 1; assay: Inhibition of human ROCK1 using magnesium acetate as substrate at 1 uM measured after 120 mins in presence of [gamma33P]ATP by scintillation counting method relative to control
[34] = molecular target: T1, Rho-associated protein kinase 2; assay: Inhibition of human ROCK2 using magnesium acetate as substrate at 1 uM measured after 120 mins in presence of [gamma33P]ATP by scintillation counting method relative to control
Target sequence in this assay (O75116 whole entry, looked up): as the sequence (O75116 whole entry, looked up) above

Homo sapiens [35] = organism: Homo sapiens; assay: Inhibition of human PKA using magnesium acetate as substrate at 1 uM measured after 120 mins in presence of [gamma33P]ATP by scintillation counting method relative to control
[36] = molecular target: T3, MAP kinase-interacting serine/threonine-protein kinase 1; assay: Inhibition of human MNK1 using magnesium acetate as substrate at 1 uM measured after 120 mins in presence of [gamma33P]ATP by scintillation counting method relative to control
Target sequence in this assay (Q9BUB5 whole entry, looked up): as the sequence (Q9BUB5 whole entry) above

[37] = molecular target: MAP kinase-interacting serine/threonine-protein kinase 2 (Homo sapiens) (UniProt Q9HBH9); assay: Inhibition of human MNK2 using magnesium acetate as substrate at 1 uM measured after 120 mins in presence of [gamma33P]ATP by scintillation counting method relative to control
Homo sapiens [38] = organism: Homo sapiens; assay: Inhibition of human PKB using magnesium acetate as substrate at 1 uM measured after 120 mins in presence of [gamma33P]ATP by scintillation counting method relative to control
[39] = molecular target: Protein kinase C (PKC) (Homo sapiens) (UniProt O94806+P41743+P17252+P05129+Q05655+P05771+Q05513+Q02156+P24723+Q15139+Q04759); assay: Inhibition of human PKC using magnesium acetate as substrate at 1 uM measured after 120 mins in presence of [gamma33P]ATP by scintillation counting method relative to control; format: protein assay
[40] = molecular target: Serine/threonine-protein kinase SIK2 (Homo sapiens) (UniProt Q9H0K1); assay: Inhibition of human QIK using magnesium acetate as substrate at 1 uM measured after 120 mins in presence of [gamma33P]ATP by scintillation counting method relative to control
[41] = molecular target: Mitogen-activated protein kinase kinase kinase kinase 4 (Homo sapiens) (UniProt O95819); assay: Inhibition of human HGK using magnesium acetate as substrate at 1 uM measured after 120 mins in presence of [gamma33P]ATP by scintillation counting method relative to control
Sequence of Mitogen-activated protein kinase kinase kinase kinase 4 (Homo sapiens) (O95819 2-1239 limits assumed): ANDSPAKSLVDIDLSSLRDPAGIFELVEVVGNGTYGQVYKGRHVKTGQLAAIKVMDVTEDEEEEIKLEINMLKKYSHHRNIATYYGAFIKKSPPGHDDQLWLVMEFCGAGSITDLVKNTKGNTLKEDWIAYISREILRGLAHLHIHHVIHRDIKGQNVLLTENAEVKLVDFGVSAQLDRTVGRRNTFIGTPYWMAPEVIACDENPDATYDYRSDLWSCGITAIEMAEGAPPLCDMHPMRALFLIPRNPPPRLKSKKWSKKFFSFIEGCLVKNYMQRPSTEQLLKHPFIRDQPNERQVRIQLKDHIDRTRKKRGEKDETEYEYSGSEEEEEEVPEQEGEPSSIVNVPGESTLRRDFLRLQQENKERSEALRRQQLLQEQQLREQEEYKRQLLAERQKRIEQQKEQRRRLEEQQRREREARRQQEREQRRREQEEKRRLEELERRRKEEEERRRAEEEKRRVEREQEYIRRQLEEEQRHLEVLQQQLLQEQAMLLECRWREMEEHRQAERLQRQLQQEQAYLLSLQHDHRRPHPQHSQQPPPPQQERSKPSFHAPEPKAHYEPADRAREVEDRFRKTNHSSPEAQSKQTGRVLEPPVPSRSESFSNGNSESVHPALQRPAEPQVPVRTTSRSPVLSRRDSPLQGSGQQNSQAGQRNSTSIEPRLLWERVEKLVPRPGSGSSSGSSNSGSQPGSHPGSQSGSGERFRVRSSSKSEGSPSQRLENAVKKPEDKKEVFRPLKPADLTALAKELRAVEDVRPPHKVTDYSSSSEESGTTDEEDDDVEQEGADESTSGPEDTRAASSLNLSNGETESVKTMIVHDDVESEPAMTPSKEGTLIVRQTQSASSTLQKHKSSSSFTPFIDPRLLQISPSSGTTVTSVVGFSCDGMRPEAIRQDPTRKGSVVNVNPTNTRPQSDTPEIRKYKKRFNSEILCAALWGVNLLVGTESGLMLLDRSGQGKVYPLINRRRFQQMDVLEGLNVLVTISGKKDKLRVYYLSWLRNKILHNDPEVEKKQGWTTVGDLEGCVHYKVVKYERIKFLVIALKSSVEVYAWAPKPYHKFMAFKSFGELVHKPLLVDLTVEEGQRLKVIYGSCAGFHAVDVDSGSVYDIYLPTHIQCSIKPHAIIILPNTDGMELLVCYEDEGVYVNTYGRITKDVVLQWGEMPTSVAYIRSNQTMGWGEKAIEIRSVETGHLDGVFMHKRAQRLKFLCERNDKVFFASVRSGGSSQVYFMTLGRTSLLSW

HTM [42] = assay: Induction of F-actin depolymerization in human HTM cells at 1 to 5 uM incubated for 4 hrs by rhodamine-phalloidin staining based analysis; format: cell-based; details: dose 1-5 µM
HTM [43] = assay: Induction of morphological changes in human HTM cells at 0.1 uM incubated for 10 hrs in presence of eFT508 by light microscopic analysis; format: functional, cell-based

SMILES | inhibition (HTM [7]) | inhibition (HTM [8]) | inhibition (HTM [9]) | Activity (Mitochondrial membrane) | Activity [10] [%] | Activity (Oryctolagus cuniculus [11]) [mmHg] | Activity (Oryctolagus cuniculus [12]) [mmHg] | Activity (Oryctolagus cuniculus [13]) [mmHg] | Activity (Oryctolagus cuniculus [14]) [mmHg] | IC50 [18] [nM] | IC50 [19] [nM] | Activity (HTM [21]) | Activity (HTM [22]) | Activity (HTM [23]) | Activity [24] | inhibition (HTM [25]) | inhibition (HTM [26]) | Activity (HTM [27]) | inhibition (HTM [28]) | Activity (HTM [29]) | also measured
Cc1ccc(C(=O)OCc2ccc([C@@H](CN)C(=O)Nc3ccc4cnccc4c3)cc2)c(C)c1 | Active | Active | Active | inactive | 43.02 | 3.55 | 4.7 | 9.5 | 8.16 | – | – | – | – | – | – | – | – | – | – | – | Activity (HTM [1]): Active; Activity (HTM [2]): Active; Activity [3]: 60%; Activity [4]: 80%; Activity (HTM [5]): Active; inhibition (HTM [6]): Active; Activity [15]: Toxic; Activity [16]: Toxic
c1cc(-c2cc(C3CCNCC3)n[nH]2)c2cc[nH]c2n1 | Active | Active | Active | inactive | 36.77 | 5 | 2.56 | – | 9.38 | 47.2 | 33.8 | Minimal_effect; Compound Induced Minimal Changes In Cell Morphology | Active | Active | Non-toxic | Active | inactive | Active | Active | Active | inhibition [17]: 98%; IC50 [20]: 47.2 nM; Activity [30]: Non-toxic
COc1cccc(CN2CCC(c3cc(-c4ccnc5[nH]ccc45)[nH]n3)CC2)c1 | Active | Active | Active | Active | 34.32 | 0.89 | 0.22 | 5.01 | – | 123 | 96.7 | Minimal_effect; Compound Induced Minimal Changes In Cell Morphology | Active | Active | Non-toxic | Active | inactive | Active | Active | Active | inhibition [31]: 61.6%; inhibition [32]: 64.7%; inhibition [33]: 85%; inhibition [34]: 89%; inhibition (Homo sapiens [35]): 70%; inhibition [36]: < 55%; inhibition [37]: < 50%; inhibition (Homo sapiens [38]): < 50%; inhibition [39]: < 55%; inhibition [40]: < 50%; inhibition [41]: < 55%; Activity (HTM [42]): Active; Activity (HTM [43]): Active; Activity [30]: Non-toxic
